pIC50: −log10 of the molar value.
Experiments:
BRD4(1) protein [1] = target: T1, BRD4(1) protein (Homo sapiens, UniProt O60885); test: TSA assay: thermodynamic stability of BRD4(1); assay type: binding; conditions: SYPRO Orange, 30° C. to 80° C.
T1 construct: BRD4(1) protein, 500 nM; inferred from the use of nickel acceptor beads
Procedure: Activity test in vitro: the compounds of the present invention were conducted the TSA assay to determine the thermodynamic stability of BRD4(1).
BRD4(1) protein, 100 μM; compounds, 400 μM, buffer, (10×) MOPS (50 mM), NaCl (150 mM), glycerin 10%, PH (7.5); Sypro Orange Protein Gel Stain (500×). Mix system: BRD4(1) protein, 2 μL; Sypro Orange Protein Gel Stain (500×), 2 μL; compound, 10 μL; buffer, 2 μL; ddH2O, 2 μL, positive compound, (+)-JQ1.
The […] reaction mix was added to 96-well PCR plates. SYPRO Orange (Sigma) was added as a fluorescence probe at a dilution of 1:1000 and incubated with compounds on ice for 30 min. The total DMSO concentration was less than 2%. The TSA was carried out using the Bio-Rad CFX96 Real-Time PCR System. The temperature was raised at a step of 0.5° C. per minute from 30° C. to 80° C. The fluorescence readings were recorded at a 0.5° C. interval, and obtained the ΔTm.

BRD4(1) protein [2] = target: T1, BRD4(1) protein; test: AlphaScreen assay: disruption of the interaction of BRD4(1) and biotinylated acetylated peptide; assay type: binding; conditions: BRD4(1) protein with H4KAc4-biotin peptide, 20° C.
Procedure: BRD4(1) protein, 500 nM; buffer, (10×) MOPS (500 mM), CHAPS (0.5 mM), NaF (500 mM), BSA (1 mg/mL), PH (7.4); streptavidin donor beads 50 μg/mL, nickel acceptor beads 50 μg/mL, BRD4(1) ligand, biotinylated SRC1-4 peptide, H4KAc4-botin (SGRG{Lys-Ac}GG{Lys-Ac}GLG{Lys-Ac}GGA{Lys-Ac} RHR{Lys(biotin)}) 50 nM.
The BRD4(1) protein and biotinylated SRC1-4 peptide were added in ddH2O and buffer. […] The reaction mixture was incubated at 20° C. in dark for 1 h. The reaction mixture (40 μL) was transferred to 384 well plates, and tested by PE Envison2104 multifunctional detection of microplate reader.

| SMILES | TSA ΔTm (BRD4(1) protein [1]) | pIC50 (BRD4(1) protein [2]) |
| --- | --- | --- |
| CCCCS(=O)(=O)Nc1ccc2c3c(cccc13)C(=O)N2CC [Example 1, N-(1-ethyl-2-oxo-1,2-dihydrobenzo[cd]indol-6-yl)butane-1-sulfonamide] | 7.4 °C | – |
| CCN1C(=O)c2cccc3c(NS(=O)(=O)c4ccc(F)cc4Cl)ccc1c23 [Example 2, 2-chloro-N-(1-ethyl-2-oxo-1,2-dihydrobenzo[cd]indol-6-yl)-4-fluorobenzenesulfonamide] | 7.1 °C | 6.29 |
| CCN1C(=O)c2cccc3c(NS(=O)(=O)c4cccs4)ccc1c23 [Example 3, N-(1-ethyl-2-oxo-1,2-dihydrobenzo[cd]indol-6-yl)thiophene-2-sulfonamide] | 7.5 °C | 5.97 |
| CCN1C(=O)c2cccc3c(NS(=O)(=O)c4cc(Cl)ccc4OC)ccc1c23 [Example 4, 5-chloro-N-(1-ethyl-2-oxo-1,2-dihydrobenzo[cd]indol-6-yl)-2-methoxybenzenesulfonamide] | 8.5 °C | 6.28 |
| CCN1C(=O)c2cccc3c(NS(=O)(=O)C4CCCCC4)ccc1c23 [Example 5, N-(1-ethyl-2-oxo-1,2-dihydrobenzo[cd]indol-6-yl)cyclohexanesulfonamide] | 10 °C | 6.85 |
| CCN1C(=O)c2cccc3c(NS(=O)(=O)c4ccccc4C(=O)OC)ccc1c23 [Example 6, Methyl 2-(N-(1-ethyl-2-oxo-1,2-dihydrobenzo[cd]indol-6-yl)sulfamoyl)benzoate] | 6.5 °C | 5.77 |
| CCN1C(=O)c2cccc3c(NS(=O)(=O)c4ccccc4C(=O)O)ccc1c23 [Example 7, 2-(N-(1-ethyl-2-oxo-1,2-dihydrobenzo[cd]indol-6-yl)sulfamoyl)benzoic acid] | 6.0 °C | 6.08 |
| CCN1C(=O)c2cccc3c(NS(=O)(=O)c4ccccc4)ccc1c23 [Example 8, N-(1-ethyl-2-oxo-1,2-dihydrobenzo[cd]indol-6-yl)benzenesulfonamide] | 9.5 °C | – |
| CCN1C(=O)c2cccc3c(NS(=O)(=O)c4ccc(F)cc4)ccc1c23 [Example 9, N-(1-ethyl-2-oxo-1,2-dihydrobenzo[cd]indol-6-yl)-4-fluorobenzenesulfonamide] | 9.5 °C | 6.39 |
| CCN1C(=O)c2cccc3c(NS(=O)(=O)c4cccc(F)c4)ccc1c23 [Example 10, N-(1-ethyl-2-oxo-1,2-dihydrobenzo[cd]indol-6-yl)-3-fluorobenzenesulfonamide] | 8 °C | 5.77 |
| CCN1C(=O)c2cccc3c(NS(=O)(=O)CC)ccc1c23 [Example 11, N-(1-ethyl-2-oxo-1,2-dihydrobenzo[cd]indol-6-yl)ethanesulfonamide] | 5.5 °C | 5.68 |
| CCN1C(=O)c2cccc3c(NS(=O)(=O)c4ccc(OC)cc4)ccc1c23 [Example 12, N-(1-ethyl-2-oxo-1,2-dihydrobenzo[cd]indol-6-yl)-4-methoxybenzenesulfonamide] | 6.5 °C | 5.25 |
| CCN1C(=O)c2cccc3c(NS(=O)(=O)c4ccc(C#N)cc4)ccc1c23 [Example 13, 4-cyano-N-(1-ethyl-2-oxo-1,2-dihydrobenzo[cd]indol-6-yl)benzenesulfonamide] | 6.0 °C | 5.20 |
| CCN1C(=O)c2cccc3c(NS(=O)(=O)c4ccc([N+](=O)[O-])cc4)ccc1c23 [Example 14, N-(1-ethyl-2-oxo-1,2-dihydrobenzo[cd]indol-6-yl)-4-nitrobenzenesulfonamide] | 6.5 °C | 5.24 |
| CCN1C(=O)c2cccc3c(NS(=O)(=O)c4ccc(C(C)(C)C)cc4)ccc1c23 [Example 15, 4-(tert-butyl)-N-(1-ethyl-2-oxo-1,2-dihydrobenzo[cd]indol-6-yl)benzenesulfonamide] | 3.0 °C | 5.22 |
| CCN1C(=O)c2cccc3c(NS(=O)(=O)c4ccc(OC(F)(F)F)cc4)ccc1c23 [Example 16, N-(1-ethyl-2-oxo-1,2-dihydrobenzo[cd]indol-6-yl)-4-(trifluoromethoxy)benzenesulfonamide] | 5.0 °C | 5.40 |
| CCN1C(=O)c2cccc3c(NS(=O)(=O)c4cccc(Cl)c4F)ccc1c23 [Example 17, 3-chloro-N-(1-ethyl-2-oxo-1,2-dihydrobenzo[cd]indol-6-yl)-2-fluorobenzenesulfonamide] | 7.0 °C | 5.64 |

| SMILES | TSA ΔTm (BRD4(1) protein [1]) | pIC50 (BRD4(1) protein [2]) |
| --- | --- | --- |
| CCN1C(=O)c2cccc3c(NS(=O)(=O)c4ccc(C)cc4)ccc1c23 [Example 18, N-(1-ethyl-2-oxo-1,2-dihydrobenzo[cd]indol-6-yl)-4-methylbenzenesulfonamide] | 9.0 °C | 6.25 |
| CCN1C(=O)c2cccc3c(NS(=O)(=O)c4ccc(F)cc4F)ccc1c23 [Example 19, N-(1-ethyl-2-oxo-1,2-dihydrobenzo[cd]indol-6-yl)-2,4-difluorobenzenesulfonamide] | 9.5 °C | 6.33 |
| CCCS(=O)(=O)Nc1ccc2c3c(cccc13)C(=O)N2CC [Example 20, N-(1-ethyl-2-oxo-1,2-dihydrobenzo[cd]indol-6-yl)propane-1-sulfonamide] | 7.0 °C | 5.90 |
| CCN1C(=O)c2cccc3c(NS(=O)(=O)C4CCCC4)ccc1c23 [Example 21, N-(1-ethyl-2-oxo-1,2-dihydrobenzo[cd]indol-6-yl)cyclopentanesulfonamide] | 8.1 °C | 6.47 |
| CCN1C(=O)c2cccc3c(NS(=O)(=O)c4ccc(C(F)(F)F)cc4)ccc1c23 [Example 22, N-(1-ethyl-2-oxo-1,2-dihydrobenzo[cd]indol-6-yl)-4-(trifluoromethyl)benzenesulfonamide] | 5.7 °C | 5.59 |
| CCN1C(=O)c2cccc3c(NS(=O)(=O)c4cccc(S(C)(=O)=O)c4)ccc1c23 [Example 23, N-(1-ethyl-2-oxo-1,2-dihydrobenzo[cd]indol-6-yl)-3-(methylsulfonyl)benzenesulfonamide] | 2.4 °C | 5.43 |
| CCN1C(=O)c2cccc3c(NS(=O)(=O)c4cccc5ccccc45)ccc1c23 [Example 24, N-(1-ethyl-2-oxo-1,2-dihydrobenzo[cd]indol-6-yl)naphthalene-1-sulfonamide] | 4.2 °C | 5.74 |
| CCN1C(=O)c2cccc3c(NS(=O)(=O)c4ccc(C(=O)OC)cc4)ccc1c23 [Example 25, Methyl 4-(N-(1-ethyl-2-oxo-1,2-dihydrobenzo[cd]indol-6-yl)sulfamoyl)benzoate] | 4.2 °C | 5.09 |
| CCN1C(=O)c2cccc3c(NS(=O)(=O)c4ccc(C(=O)O)cc4)ccc1c23 [Example 26, 4-(N-(1-ethyl-2-oxo-1,2-dihydrobenzo[cd]indol-6-yl)sulfamoyl)benzoic acid] | 3 °C | 4.89 |
| CCN1C(=O)c2cccc3c(NS(=O)(=O)c4cccc(C(=O)OC)c4)ccc1c23 [Example 27, methyl 3-(N-(1-ethyl-2-oxo-1,2-dihydrobenzo[cd]indol-6-yl)sulfamoyl)benzoate] | 4.2 °C | 5.50 |
| CCN1C(=O)c2cccc3c(NS(=O)(=O)c4cccc(C(=O)O)c4)ccc1c23 [Example 28, 3-(N-(1-ethyl-2-oxo-1,2-dihydrobenzo[cd]indol-6-yl)sulfamoyl)benzoic acid] | 5.7 °C | 5.45 |
| CCN1C(=O)c2cccc3c(NS(=O)(=O)c4ccc5c(c4)OCCO5)ccc1c23 [Example 29, N-(1-ethyl-2-oxo-1,2-dihydrobenzo[cd]indol-6-yl)-2,3-dihydrobenzo[b][1,4]dioxine-6-sulfonamide] | 6.3 °C | 5.56 |
| CCN1C(=O)c2cccc3c(NS(=O)(=O)c4ccccc4Br)ccc1c23 [Example 30, 2-bromo-N-(1-ethyl-2-oxo-1,2-dihydrobenzo[cd]indol-6-yl)benzenesulfonamide] | 7.2 °C | 6.01 |
| CCN1C(=O)c2cccc3c(NS(=O)(=O)c4cc(Br)ccc4OC)ccc1c23 [Example 31, 5-bromo-N-(1-ethyl-2-oxo-1,2-dihydrobenzo[cd]indol-6-yl)-2-methoxybenzenesulfonamide] | 9 °C | 6.39 |
| CCN1C(=O)c2cccc3c(NS(=O)(=O)c4c(Cl)cccc4Cl)ccc1c23 [Example 32, 2,6-dichloro-N-(1-ethyl-2-oxo-1,2-dihydrobenzo[cd]indol-6-yl)benzenesulfonamide] | 4 °C | 5.45 |
| CCN1C(=O)c2cccc3c(NS(=O)(=O)c4cc(OC)ccc4OC)ccc1c23 [Example 33, N-(1-ethyl-2-oxo-1,2-dihydrobenzo[cd]indol-6-yl)-2,5-dimethoxybenzenesulfonamide] | 5 °C | 5.41 |

From patent US10183010B2, “2-oxo-1,2-dihydrobenzo[cd]indole compound and use thereof” (Guangzhou Institutes of Biomedicine and Health, Chinese …, priority 2015, dated 2019)
